Laboratory results taken from patent US20170246166A1, “1,2-BENZOTHIAZOLE COMPOUNDS FOR THE TREATMENT OF KIDNEY DISORDERS” (priority 2014, published 2017).

Legend:
human PKCα = human PKCα (Homo sapiens, UniProt P17252); assay: PKC isoforms based HTRF KinEASE-STK assay, PKCα; assay type: biochemical; settings: 50 μM ATP in substrate mix, 30 min
From the text: (§1) The purpose of this assay is to evaluate the inhibitory activity of compounds on various PKC isoforms. It has been reported that perturbations in vascular cell homeostasis caused by different PKC isoforms (PKC-α, β1/2, and PKC-δ) are linked to the development of pathologies affecting large vessel (atherosclerosis, cardiomyopathy) and small vessel (retinopathy, nephropathy, and neuropathy) complications. Geraldes, P. and King, G. L., “Activation of Protein Kinase C Isoforms and Its Impact on Diabetic Complications”, Cir.
(§2) Effects of a test compound on the kinase activity of PKCα, β2, δ, ε, ι, and ζ, are determined using a HTRF KINEASE™-STK assay kit (Cisbio) in accordance with the protocol provided by the vendor. It is a general method for measuring Serine/Threonine kinase activities using kinase substrates and a universal detection system. In the current protocol, biotinilated STK1provided in the assay kit is used as the substrate that can be phosphorylated by any PKC isoform. The HTRF KINEASE™-STK assay kit format involves the two steps (Enzymatic step and Detection step) described below. First, the kinase phosphorylates the substrate in the presence of ATP. Second, the detection reagents provided in the assay kit recognize the phosphorylated substrate.

human PKCε = target: T1, human PKCε (Homo sapiens, UniProt Q02156); assay: PKC isoforms based HTRF KinEASE-STK assay, PKCε; assay type: biochemical; settings: 25 μM ATP in substrate mix, 30 min
T1 sequence (Q02156 1-737): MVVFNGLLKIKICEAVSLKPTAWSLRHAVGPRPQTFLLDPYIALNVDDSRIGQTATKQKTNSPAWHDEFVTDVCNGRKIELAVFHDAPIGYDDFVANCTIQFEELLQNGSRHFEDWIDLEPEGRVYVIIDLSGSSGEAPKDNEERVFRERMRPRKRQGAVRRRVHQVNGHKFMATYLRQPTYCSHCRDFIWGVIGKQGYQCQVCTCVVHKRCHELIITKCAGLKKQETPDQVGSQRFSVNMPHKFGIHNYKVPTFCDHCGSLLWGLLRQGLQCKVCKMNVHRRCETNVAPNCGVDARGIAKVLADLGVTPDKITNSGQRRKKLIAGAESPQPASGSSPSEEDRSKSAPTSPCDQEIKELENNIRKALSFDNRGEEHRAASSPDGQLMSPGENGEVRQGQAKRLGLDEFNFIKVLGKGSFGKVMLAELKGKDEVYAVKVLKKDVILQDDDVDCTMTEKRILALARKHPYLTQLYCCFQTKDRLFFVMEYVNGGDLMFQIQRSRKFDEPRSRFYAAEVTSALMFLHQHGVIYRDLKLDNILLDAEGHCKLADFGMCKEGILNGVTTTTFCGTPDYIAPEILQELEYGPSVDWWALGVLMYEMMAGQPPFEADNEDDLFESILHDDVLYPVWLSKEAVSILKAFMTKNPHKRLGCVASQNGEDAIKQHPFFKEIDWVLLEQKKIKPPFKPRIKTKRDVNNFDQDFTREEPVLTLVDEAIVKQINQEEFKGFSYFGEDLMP
From the text: as §1, §2

human PKCζ = target: T2, human PKCζ (Homo sapiens, UniProt Q05513); assay: PKC isoforms based HTRF KinEASE-STK assay, PKCζ; assay type: biochemical; settings: 10 μM ATP in substrate mix, 70 min
T2 sequence (Q05513 1-592): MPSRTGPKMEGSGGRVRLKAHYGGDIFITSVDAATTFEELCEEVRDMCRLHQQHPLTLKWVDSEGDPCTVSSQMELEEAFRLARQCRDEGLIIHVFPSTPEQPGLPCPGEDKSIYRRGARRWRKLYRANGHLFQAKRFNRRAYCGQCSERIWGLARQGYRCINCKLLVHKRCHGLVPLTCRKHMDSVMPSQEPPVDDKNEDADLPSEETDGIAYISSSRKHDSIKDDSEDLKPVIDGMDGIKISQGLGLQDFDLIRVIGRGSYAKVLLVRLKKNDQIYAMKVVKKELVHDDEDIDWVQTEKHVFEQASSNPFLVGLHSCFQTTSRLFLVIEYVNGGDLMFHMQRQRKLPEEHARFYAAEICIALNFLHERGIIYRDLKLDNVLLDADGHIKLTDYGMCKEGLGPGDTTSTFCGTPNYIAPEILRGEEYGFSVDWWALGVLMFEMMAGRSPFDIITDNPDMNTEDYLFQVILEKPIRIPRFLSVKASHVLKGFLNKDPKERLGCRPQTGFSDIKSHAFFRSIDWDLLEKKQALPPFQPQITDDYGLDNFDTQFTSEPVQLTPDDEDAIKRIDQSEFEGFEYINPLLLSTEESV
From the text: as §1, §2

db/db mice = assay: Efficacy animal model of diabetic nephropathy (albuminuria, uninephrectomized db/db mice); assay type: in vivo, mouse; settings: oral gavage twice a day
From the text: The purpose of this assay is to analyze compound efficacy in a mouse model of diabetic nephropathy. The earliest clinical manifestation of diabetic nephropathy is albuminuria, leakage of albumin in the urine. Because diabetic nephropathy can be present without any symptoms, early diagnosis is critical so that treatment can be started. The key test for early diagnosis of diabetic nephropathy involves checking for the presence of albuminuria. Thus, if a compound reduces albumin levels in the urine in a diabetic patient, it would likely indicate efficacy of the compound in the treatment of diabetic nephropathy. To model diabetic nephropathy, a combination of genetically driven type 2 diabetes and uninephrectomy is utilized. Six week-old db/db mice (genetic strain: C57 BL KsJ, ChemPartner, Shanghai) receive standard rodent chow and water ad libitum. The left kidney is removed under anesthesia with 0.6% sodium pentobarbital at 60 mg/kg body weight (10 μL/g i.p.). Seven days after surgery, urine is collected for 24 h in a metabolic cage to measure albuminuria levels and blood is collected by tail snip to determine glucose levels. For compound treatment, the animals are randomized based on 24-h albuminuria, blood glucose, and body weight. A test compound is dissolved in 4% DMSO (aqueous) and administered twice a day by oral gavage. […] During the treatment period, albuminuria is analyzed monthly. […]

IC50 (human PKCα): ~16.6 nM
IC50 (human PKCε): ~21.9 nM
IC50 (human PKCζ): ~15500 nM
SMILES: C[C@@H]1CN(C(=O)c2cc(-c3c(F)cc(O)cc3F)cc3cnsc23)C[C@H](C)N1.Cl [Example 2, 4-(7-{[(3R,5 S)-3,5-DIMETHYLPIPERAZIN-1-YL]CARBONYL}-1,2-BENZOTHIAZOL-5-YL)-3,5-DIFLUOROPHENOL HYDROCHLORIDE]
ED50 (db/db mice; Mus musculus, uninephrectomized db/db mice, read-out: ED50, reduction of albuminuria): ~25.3 mg/kg
actual mean levels of albumin in the urine (collected during 24 hours) (db/db mice; db/db mice, dose of 30 mg/kg): 85.0 ± 6.9 µg
